From patent US11078185B2, “Mycobacterium tuberculosis—thioredoxin reductase inhibitor as an antitubercular agent” (Technische Universität Dortmund, priority 2017, dated 2021)
≈ marks a conversion by molar mass, not a printed value. Where “and” joins values, the source holds several entries; their conditions need not be identical. Equal entries are not always repeated.

Assays:
[1] = type: in vitro ADME
Method: Selected compounds were investigated in terms of their permeability with the aid of the PAMPA assay (Parallel Artificial Membrane Permeation Assay). The permeability of the compounds across an artificial membrane of phospholipids was tested in a filter plate. Since a significant difference existed between the artificial membrane and the mycobacterial cell wall, the values should only be used as a measure to be able to evaluate the permeability of the compounds with respect to each other. For this purpose, the distribution between a donor and acceptor chamber without membrane was determined as the reference value (100% flux), in which the concentration of the compounds in the chambers was determined spectrophotometrically. Subsequently, the permeability of compounds 1, 8, 63 and 68 across the membrane used was determined. The PAMPA flux [%] value was 12.60 for compound 1, 29.70 for compound 8, 53.60 for compound 63, and 41.00 for compound 68.

[2] = target: MtTrxR (Mycobacterium tuberculosis thioredoxin reductase) (Mycobacterium tuberculosis, UniProt P9WHH1); assay: MtTrxR activity assay according to Lu et al. (DTNB assay); type: biochemical; conditions: error range = standard deviation
Method: The compounds according to the invention show good inhibitory activity towards MtTrxR. In a preferred embodiment, the compounds according to the invention have an IC50 value according to Lu et al. from 0.10 to 10.00 μM. Methods for determining the IC50 value according to Lu et al. are known to those skilled in the art. Reference is made in this respect to J. Lu, A. Vlamis-Gardikas, K. Kandasamy, R. Zhao, T. N. Gustafsson, L. Engstrand, S. Hoffner, L. Engman, A. Holmgren, FASEB J. 2013, 27, 1394-1403.
(§1) A biochemical evaluation of the inhibitory activity (i.e. the IC50 value) of the compounds obtained towards MtTrxR by means of an activity assay according to Lu et al. (error range indicated by the standard deviation) was conducted. The testing of the potential inhibitors against MtTrxR was performed according to the description of Lu et al. Furthermore, MIC50 values (generic minimum inhibitory concentration) of certain compounds were measured with the BD BACTEC™ MGIT™ system: […]

[3] = tested on: Mycobacterium tuberculosis; assay: MIC50 measured with the BD BACTEC MGIT system; type: cell-based; conditions: read-out: MIC50 [μM] (μG/mL)
Method: as §1

[4] = tested on: Mycobacterium tuberculosis; assay: Antimycobacterial activity (FIG. 1); type: cell-based
Excerpt: FIG. 1 is directed to the antimycobacterial activity of compounds 2, 8 and 68 according to the invention.

[5] = tested on: Mycobacterium tuberculosis strain H37Rv in infected human macrophages; assay: Antimycobacterial activity in infected human macrophages (FIG. 2); type: cell-based
Excerpt: FIG. 2 is directed to the antimycobacterial activity of compound 68 according to the invention against Mycobacterium tuberculosis strain H37Rv in infected human macrophages.

human macrophages = type: cell-based
Excerpt: FIG. 3 is directed to the cytotoxic activity of compound 68 according to the invention against human macrophages.

MtTrxR (Mycobacterium tuberculosis thioredoxin reductase), sequence (P9WHH1 whole entry): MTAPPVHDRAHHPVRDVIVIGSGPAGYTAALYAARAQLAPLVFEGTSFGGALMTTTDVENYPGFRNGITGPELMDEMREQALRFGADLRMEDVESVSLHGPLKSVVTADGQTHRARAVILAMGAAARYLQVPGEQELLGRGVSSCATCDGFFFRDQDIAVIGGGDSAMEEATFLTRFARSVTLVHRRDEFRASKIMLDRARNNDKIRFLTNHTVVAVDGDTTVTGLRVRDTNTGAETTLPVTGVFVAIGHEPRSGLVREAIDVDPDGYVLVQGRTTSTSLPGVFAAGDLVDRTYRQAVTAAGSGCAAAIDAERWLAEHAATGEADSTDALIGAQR

| SMILES | PAMPA flux [%] [1] | IC50 [2] | MIC50 [3] | antimycobacterial activity [4] | antimycobacterial activity in infected human macrophages [5] | cytotoxicity towards macrophages (human macrophages) |
| --- | --- | --- | --- | --- | --- | --- |
| COc1ccc2nc(C)cc(Nc3ccc(O)cc3)c2c1 [Compound 1, 4-((6-Methoxy-2-methylquinolin-4-yl)amino)phenol, reference compound] | 12.60% | 11.5 ± 1.52 µM |  |  |  |  |
| COc1ccc2nc(C)cc(Nc3ccc(S(=O)(=O)c4ccc(Nc5ccncc5)cc4)cc3)c2c1 [Compound 2, 6-methoxy-2-methyl-N-(4-((4-(pyridin-4-ylamino)phenyl)sulfonyl)phenyl)quinolin-4-amine] |  | 0.25 ± 0.04 µM | 8 to 32 µM (≈ 3.97 to 15.9 µg/mL) | concentration-dependent antimycobacterial activity |  |  |
| COc1ccc2nc(C)cc(Nc3ccc(Cc4ccc(N)cc4)cc3)c2c1 [Compound 8, N-(4-(4-aminobenzyl)phenyl)-6-methoxy-2-methylquinolin-4-amine] | 29.70% | 1.8 µM | 4 to 8 µM (≈ 1.48 to 2.96 µg/mL) | concentration-dependent antimycobacterial activity |  |  |
| COc1ccc2nc(C)cc(Nc3ccc(S(=O)(=O)c4ccc(N)cc4)cc3)c2c1 [Compound 9, N-(4-((4-aminophenyl)sulfonyl)phenyl)-6-methoxy-2-methylquinolin-4-amine] |  | 5.21 ± 0.24 µM |  |  |  |  |
| COc1ccc2nc(C)cc(Nc3ccc(S(=O)(=O)c4ccc(NC(C)=O)cc4)cc3)c2c1 [Compound 10, N-(4-((4-((6-methoxy-2-methylquinolin-4-yl)amino)phenyl)sulfonyl)phenyl)acetamide] |  | 3.59 ± 1.95 µM |  |  |  |  |
| COc1ccc2nc(C)cc(Nc3ccc(S(=O)(=O)c4ccc(Nc5ccncn5)cc4)cc3)c2c1 [Compound 24, 6-methoxy-2-methyl-N-(4-((4-(pyrimidin-4-yl-amino)phenyl)sulfonyl)phenyl)quinolin-4-amine] |  | 0.51 ± 0.04 µM | 8 to 32 µM (≈ 3.98 to 15.9 µg/mL) |  |  |  |
| COc1ccc2nc(C)cc(Nc3ccc(S(=O)(=O)c4ccc(Nc5cc(C(C)(C)C)n[nH]5)cc4)cc3)c2c1 [Compound 25, N-(4-((4-((3-(tert-butyl)-1H-pyrazol-5-yl)amino)phenyl)sulfonyl)phenyl)-6methoxy-2-methylquinolin-4-amine] |  | 9.1 ± 0.3 µM |  |  |  |  |
| COc1ccc(Nc2ccc(S(=O)(=O)c3ccc(Nc4cc(C)nc5ccc(OC)cc45)cc3)cc2)cc1 [Compound 26, 6-methoxy-N-(4-((4-((4-methoxyphenyl)amino)phenyl)sulfonyl)phenyl)-2-methylquinolin-4-amine] |  | 1.9 ± 0.8 µM | 8 to 32 µM (≈ 4.21 to 16.8 µg/mL) |  |  |  |
| COC(=O)c1ccc(Nc2ccc(S(=O)(=O)c3ccc(Nc4cc(C)nc5ccc(OC)cc45)cc3)cc2)cc1 [Compound 27, methyl-4-((4-((4-((6-methoxy-2-methylquinolin-4-yl)amino)phenyl)sulfonyl)phenyl)amino) benzoate] |  | 4.8 ± 1.6 µM |  |  |  |  |
| COc1ccc2nc(C)cc(Nc3ccc(C(=O)c4ccc(Nc5ccncc5)cc4)cc3)c2c1 [Compound 45, (4-((6-methoxy-2-methylquinolin-4-yl)amino)phenyl)(4-(pyridin-4-yl-amino)phenyl)methanone] |  | 1.04 ± 0.2 µM | > 32 µM |  |  |  |
| COc1ccc2nc(C)cc(Nc3ccc(Cc4ccc(Nc5ccncc5)cc4)cc3)c2c1 [Compound 63, 6-methoxy-2-methyl-N-(4-(4-(pyridin-4-ylamino)benzyl)phenyl)quinolin-4-amine] | 53.60% | 5.64 µM and 4.7 µM | 8 to 32 µM (≈ 3.57 to 14.3 µg/mL) |  |  |  |
| COc1ccc2nc(C)cc(Nc3ccc(Cc4ccc(Nc5ccncn5)cc4)cc3)c2c1 [Compound 68, 6-methoxy-2-methyl-N-(4-(4-(pyrimidin-4-ylamino)benzyl)phenyl)quinolin-4-amine] | 41.00% | 2.03 µM and 1.7 µM | 2 to 8 µM (≈ 0.895 to 3.58 µg/mL) | concentration-dependent antimycobacterial activity | concentration-dependent antimycobacterial activity | without being toxic |
